Experimental data from patent US12102640B2, “Use of dopamine and serotonin receptor antagonists for treatment in a subject with retinal degeneration” (United States Government as represented by the Department …, priority 2015, dated 2024).
“Also recorded” adds a separate entry of the source.

How the values were obtained:
P23H rat RGCs = experiment: Light sensitivity (intensity-response functions) of RGCs in isolated P23H rat retina, extracellular recording; type: cell-based; conditions: for number of RGCs tested whose sensitivity was increased / average lowering of light intensity (increase in light sensitivity): P23H rat RGCs; for number of RGCs tested whose sensitivity was increased: one cell per retina; for average lowering of light intensity (increase in light sensitivity): difference of means before vs during drug; for light intensity at which the pre-drug half-maximum response was obtained in the presence of the drug, average: mean±SD of P23H rat RGCs (n=4-12), 100 ms flashes, concentration not given; for increase in light sensitivity of the representative RGC / light intensity that evoked the pre-drug half-maximum response with application of the drug, representative RGC: single representative P23H rat RGC; for light intensity that evoked the pre-drug half-maximum response with application of the drug, representative RGC: bath applied ~10 min, relative to 8.5×10^17 photons/cm^2/s
Procedure: P23H-line 1 homozygous rats (age range 22-37 weeks) were used. Breeding pairs of P23H-line 1 homozygous rats were generously donated by Dr. Matthew LaVail (University of California San Francisco, CA). The room light was kept on a 12 hr light/dark cycle using standard fluorescent lighting. During the light cycle, the illumination at the level of the cages was 100-200 lux.
(§1) On the day of an experiment, a rat was euthanized with sodium pentobarbital (150 mg/kg, i.p.), and the eyes were removed and hemisected under normal room light. After removal of the vitreous humour from each eye, one eyecup was transferred to a holding vessel containing bicarbonate-buffered Ames medium (Sigma-Aldrich), which was continuously gassed at room temperature with 5% CO2/95% O2. The retina of the other eyecup was gently peeled from the retinal pigment epithelium/choroid and trimmed into a square of ˜12 mm^2. The retina was then placed photoreceptor side down in a small volume (0.1 ml) chamber. The chamber was mounted on a fixed-stage upright microscope (Nikon Eclipse E600FN), and the retina superfused at 1.5 ml/min with bicarbonate-buffered Ames medium supplemented with 2 mg/ml D-(+) glucose and equilibrated with 5% CO2/95% O2. An in-line heating device (Warner Instruments) was used to maintain recording temperature at 35-36° C. The retina of the other eyecup was used later in the day.
(§2) Electrical Recording: Action potentials (spikes) were recorded extracellularly from individual RGCs. With the aid of red light (>630 nm) that was delivered from below the chamber, the tip of a glass insulated platinum/tungsten microelectrode (0.6-1.0 MΩ impedance; Thomas Recording GmbH, Germany) was visually advanced to the retinal surface with a motor-driven micromanipulator. Extracellular potentials from RGCs were amplified and bandpass filtered at 100 to 5000 Hz by a differential amplifier (Xcell-3; FHC, Bowdoin, ME). […] Spikes from single RGCs were converted to standard transistor to transistor logic (TTL) pulses with a time-amplitude window discriminator (APM Neural Spike Discriminator, FHC). A laboratory data acquisition system (1401 Processor and Spike2 software; Cambridge Electronic Design Ltd., Cambridge, UK) was used to digitize the TTL pulses and raw spike train data.
(§3) Light from a mercury arc lamp illuminated an aperture that was focused on the retina from above, through the 4× objective of the microscope. The image produced on the retina was either a 250-μm or 1.5-mm diameter spot, which was centered on the recorded RGC. In the light path was a 545 nm interference filter (bandwidth, 30 nm). The intensity of the unattenuated light stimulus on the retina, measured with a spectroradiometer (ILT900-R, International Light Technologies), was 8.5×10^17 photons/cm^2/s. Light intensities are expressed herein in log units relative to the unattenuated light intensity. An electromechanical shutter (Uniblitz, Rochester, NY) was used to control the stimulus duration, which was set to 100 ms in constructing intensity response curves. During recordings from RGCs, light flashes were presented with interstimulus intervals of 3-15 s (depending upon the duration and intensity of the light stimulus) to avoid any adapting effect of the previous flash. All experiments were performed in a dimly lighted room (10 lux).
(−)-Sulpiride was purchased from Tocris Bioscience (Minneapolis, MN). Sulpiride was dissolved in a small amount of dimethylsulphoxide (DMSO) and diluted in physiological saline. The drug solution was applied to the bathing solution using a calibrated syringe pump (Razel Scientific Instruments). Drug was bath applied for ˜10 min to ensure stable responses before effects were examined. Only one cell was studied in each retina to avoid possible residual drug effects.
Intensity-response curves were generated from the responses of RGCs to 100 ms flashes of light. The light stimulus was either a 250-μm or 1.5-mm diameter spot. […]

[1] = test system: long-latency ON-center P23H rat RGC; experiment: Light responses of long-latency ON-center RGCs to a 250-μm spot (spike rasters, PSTHs); type: cell-based; conditions: sulpiride 12 µM, clozapine 5 μM, aripiprazole 5 μM, eticlopride 1 µM, MDL-100907 640 nM
Procedure: as §1, §2, §3
(−)-Sulpiride and clozapine were purchased from Tocris Bioscience (Minneapolis, MN). Aripiprazole was purchased from Sigma-Aldrich (St. Louis, MO). Sulpiride and clozapine were dissolved in a small amount of dimethylsulphoxide (DMSO) and diluted in physiological saline. Aripiprazole was dissolved in a small amount of 1 mM HCl and diluted in physiological saline. As in Example 1, the drug solutions were applied to the bathing solution using calibrated syringe pumps (Razel Scientific Instruments). Drugs were bath applied for ˜10 min to ensure stable responses before effects were examined. Only one cell was studied in each retina to avoid possible residual drug effects. P23H rat RGCs were identified as either ON-center or OFF-center cells from their responses to a 500-700 ms flash of a small (250-μm diameter) spot of light centered over the receptive field. ON-center cells elicit an excitatory response to the onset but not to the offset of the spot of light, whereas OFF-center cells elicit an excitatory response to the offset of the spot of light. […]

OFF-center P23H rat RGC = experiment: Light responses of OFF-center RGCs that show a long-latency ON response; type: cell-based; conditions: 250-μm spot; sulpiride 9 µM, aripiprazole 5 µM
Procedure: as §1, §2
as §3, with “During recordings from RGCs, light flashes were presented with interstimulus intervals of 3-15 s (depending upon the duration and intensity of the light stimulus) to avoid any adapting effect of the previous flash. All experiments were performed in a dimly lighted room (10 lux).” left out

[2] = test system: D2 and D3 receptors over D4 receptors; conditions: compared with sulpiride; cited from earlier work
[3] = sulpiride 13 µM, L-745,870 1 µM
[4] = pooled data of MDL-100907 and SB-242084, 6 P23H rat RGCs
[5] = eticlopride 1 μM, 6 P23H rat RGCs

## Cl.Cl.Cl.Clc1ccc(N2CCN(Cc3c[nH]c4ncccc34)CC2)cc1 [L-745,870, 3-(4-[4-Chlorophenyl]piperazin-1-yl)-methyl-1-H-pyrrolo[2,3-b]pyridinetrihydrochloride]
P23H rat RGCs
  number of RGCs tested whose sensitivity was increased: 11 of the 12
  average lowering of light intensity (increase in light sensitivity): 0.21 log unit
  light intensity at which the pre-drug half-maximum response was obtained in the presence of the drug, average: −3.31±0.54 log units attenuation
P23H rat RGCs; [3]
  increase in light sensitivity of the representative RGC: 0.34 log unit
  light intensity that evoked the pre-drug half-maximum response with application of the drug, representative RGC: −3.69 log units attenuation

## COc1cccc([C@H](O)C2CCN(CCc3ccc(F)cc3)CC2)c1OC [MDL-100907]
P23H rat RGCs; [4]
  average increase in sensitivity, pooled 5-HT2 antagonists: 0.25 log unit
  average light sensitivity during drug, pooled 5-HT2 antagonists: −3.25 log units
[1]
  effect on the OFF response: appeared; also recorded: brought out an OFF response
  effect on the long-latency ON response: abolished; also recorded: eliminated

## CCN1CCCC1CNC(=O)c1cc(S(=O)(=O)CC)c(N)cc1OC (stereo not drawn) [amisulpride]
P23H rat RGCs
  number of RGCs tested whose sensitivity was increased: all 5
  average lowering of light intensity (increase in light sensitivity): 0.39 log unit
  light intensity at which the pre-drug half-maximum response was obtained in the presence of the drug, average: −3.67±0.30 log units attenuation

## O=C1CCc2ccc(OCCCCN3CCN(c4cccc(Cl)c4Cl)CC3)cc2N1 [aripiprazole]
P23H rat RGCs
  average lowering of light intensity (increase in light sensitivity): 0.27 log unit
  light intensity at which the pre-drug half-maximum response was obtained in the presence of the drug, average: −3.54±0.36 log units attenuation
[1]
  effect on the OFF response: appeared; also recorded: brought out an OFF response
  effect on the long-latency ON response: still present; also recorded: did not eliminate
OFF-center P23H rat RGC
  effect on the OFF response: remained intact; also recorded: spared
  effect on the delayed (long-latency) ON response: reduced; also recorded: eliminated

## CN1CCN(C2=Nc3cc(Cl)ccc3Nc3ccccc32)CC1 [clozapine]
P23H rat RGCs
  average lowering of light intensity (increase in light sensitivity): 0.30 log unit
  light intensity at which the pre-drug half-maximum response was obtained in the presence of the drug, average: −3.56±0.55 log units attenuation

## CCc1cc(Cl)c(OC)c(C(=O)NC[C@@H]2CCCN2CC)c1O [eticlopride, (−)-Eticlopride]
P23H rat RGCs; [5]
  average increase in light sensitivity: 0.31 log unit
  average light sensitivity during drug: −3.07 log units
  cells showing an increase in light sensitivity: All cells
[1]
  effect on the OFF response: appeared; also recorded: brought out an OFF response
  effect on the long-latency ON response: abolished; also recorded: eliminated
[2]
  selectivity for D2 and D3 receptors over D4 receptors: greater selectivity than sulpiride

## O=C(CCCN1CCC(O)(c2ccc(Cl)cc2)CC1)c1ccc(F)cc1 [haloperidol]
P23H rat RGCs
  number of RGCs tested whose sensitivity was increased: all 4
  average lowering of light intensity (increase in light sensitivity): 0.28 log unit
  light intensity at which the pre-drug half-maximum response was obtained in the presence of the drug, average: −3.39±0.43 log units attenuation

## CCN1CCC[C@H]1CNC(=O)c1cc(S(N)(=O)=O)ccc1OC [sulpiride, (−)-Sulpiride]
P23H rat RGCs
  number of RGCs tested whose sensitivity was increased: 8 of the 9
  average lowering of light intensity (increase in light sensitivity): 0.29 log unit
  light intensity at which the pre-drug half-maximum response was obtained in the presence of the drug, average: −3.17±0.27 log units attenuation
P23H rat RGCs; single P23H rat RGC, sulpiride 13 µM, L-745,870 1 µM
  shift of the intensity-response curve: to the left
P23H rat RGCs; [3]
  increase in light sensitivity of the representative RGC: 0.44 log unit
  light intensity that evoked the pre-drug half-maximum response with application of the drug, representative RGC: −3.47 log units attenuation
[1]
  effect on the OFF response: appeared; also recorded: brought out an OFF response
  effect on the long-latency ON response: abolished; also recorded: eliminated
OFF-center P23H rat RGC
  effect on the OFF response: remained intact; also recorded: spared
  effect on the delayed (long-latency) ON response: reduced; also recorded: diminished
